Results: patent US9233954B2, “Organic amine salts of Azilsartan, preparation method and use thereof” (Jiangsu Hansoh Pharmaceutical Co., Ltd., priority 2011, dated 2016)

System: hypertension rats induced by Angiotensin II
Assay: Effect on the hypertension rats induced by angiotensin II (DSI telemetry)
Type: in vivo, Sprague-Dawley rats
Details: for The average MBP over 23 hours before administration: baseline before single intragastric dose; for The average MBP over 23 hours before administration / Average blood pressure 1 hr after administration / Average blood pressure 2 hr after administration / Average blood pressure 3 hr before administration / Average blood pressure 7 hr after administration / Average blood pressure 13 hr after administration / Average blood pressure 13 hr before administration / Average blood pressure 18 hr after administration / Average blood pressure 23 hr after administration / Average blood pressure 23 hr before administration / The average MBP over 23 hours after administration: Mean±S.E., N=8; for Average ratio of reduction of the average blood pressure: average value after administration over 23 hours
Procedure: The Effect on the Hypertension Rats Induced by Angiotensin II
The dosage of angiotensin II was determined according to literature (Harrison-Bernard L M, Zhuo J, Kobori H, Ohishi M, Navar L G. Intrarenal A T (1) receptor and ACE binding in ANG II-induced hypertensive rats. Am. J. Physiol. Renal Physiol. 2002 January; 282(1):F19-25; Diz D I, Baer P G, Nasjletti A. Angiotensin II-induced hypertension in the rat. Effects on the plasma concentration, renal excretion, and tissue release of prostaglandins. J. Clin. Invest. 1983 August; 72(2):466-77.). Angiotensin II was precisely weighed and diluted with sterile saline up to a concentration of 14.4 mg/mL, then mixed slightly until clear and stored at −20° C. in the dark.
HS-10149 suspension: the compounds were precisely weighed and diluted with 2% of Ceolus suspension in a gradient of 0.20 mg/ml, 0.06 mg/ml, 0.02 mg/ml, then the suspension was stirred until dissolution and stored at 4° C. in the dark. The sample was warmed to room temperature in advance before administration and mixed to uniform.
The animals with required weight (female: 230-250 g, male: 200-220 g) were selected after adaptation for one week. The male rats were subjected to combined anesthesia of ketamine (44 mg/kg, im.) and 2% pentobarbital sodium solution (30 mg/kg, ip), and the female rates were narcotized with 2% pentobarbital sodium solution (40 mg/kg, ip). The implants were implanted on day 0 and the blood pressure was continuously monitored for 24 hours from the 7th day after implantation of a micro osmotic pump. The animals with mean systolic blood pressure (MSBP) up to 140 mmHg over 24 hours were considered as standard screening animals. The qualified animals were used in the test and the unqualified animals were excluded.
The qualified animals were divided into groups according to their MSBP over 24 hours, 8 animals for each group with half female and half male. 8 animals for each group met the requirement of statistical tests and the requirement of pharmacodynamics guiding principles.
After grouping, the solvent control, low, middle and high dosage animal groups were intragastrically administered with 2% Ceolus, 0.1 mg/kg, 0.3 mg/kg and 1.0 mg/kg of HS-10149, respectively. The administration time was 10:00 and 10:30 a.m. and the administration volume was 5 mL/kg.
(4) Experimental Process Healthy animals were implanted with implants at day 0 and a micro osmotic pump was implanted subcutaneously at day 8. The blood pressure was monitored for 24 hours from the 15th day and the animals with qualified blood pressure were selected to test. Positive drug or test sample was administered once at 10:00 a.m. on the 16th day and the blood pressure was monitored after administration for 24 hours. At the end of the test, the animals were sacrificed by excessive carbon dioxide. 5. Handling and Analysis of Data
The data were recorded every 5 s automatically by the DSI remote sensing pressure measuring device. The mean value calculated within an hour as unit by the software was considered as initial data.

## CCOc1nc2cccc(C(=O)O)c2n1Cc1ccc(-c2ccccc2-c2noc(=O)[nH]2)cc1.CCOc1nc2cccc(C(=O)[O-])c2n1Cc1ccc(-c2ccccc2-c2noc(=O)[nH]2)cc1.C[N+](C)(C)CCO [Example 2]
0.1 mg/kg group
  The average MBP over 23 hours before administration: 146 ± 5 mmHg
  Average blood pressure 1 hr after administration: 128 ± 8
  Average blood pressure 2 hr after administration: 102 ± 9
  Average blood pressure 3 hr before administration: 128 ± 9
  Average blood pressure 7 hr after administration: 91 ± 5
  Average blood pressure 13 hr after administration: 110 ± 3
  Average blood pressure 13 hr before administration: 144 ± 7
  Average blood pressure 18 hr after administration: 114 ± 3
  Average blood pressure 23 hr after administration: 109 ± 5
  Average blood pressure 23 hr before administration: 142 ± 8
0.1 mg/kg single intragastric dose
  The average MBP over 23 hours after administration: 110 ± 3 mmHg
0.1 mg/kg to 1.0 mg/kg
  Antihypertension effect in the hypertension rat models induced by angiotensin II: significant antihypertension effect
0.1 mg/kg
  Average ratio of reduction of the average blood pressure: 24.7%
0.3 mg/kg group
  The average MBP over 23 hours before administration: 145 ± 5 mmHg
  Average blood pressure 1 hr after administration: 119 ± 11
  Average blood pressure 2 hr after administration: 83 ± 6
  Average blood pressure 3 hr before administration: 124 ± 10
  Average blood pressure 7 hr after administration: 77 ± 4
  Average blood pressure 13 hr after administration: 91 ± 8
  Average blood pressure 13 hr before administration: 150 ± 6
  Average blood pressure 18 hr after administration: 108 ± 10
  Average blood pressure 23 hr after administration: 93 ± 3
  Average blood pressure 23 hr before administration: 147 ± 8
0.3 mg/kg single intragastric dose
  The average MBP over 23 hours after administration: 88 ± 7 mmHg
0.3 mg/kg
  Average ratio of reduction of the average blood pressure: 39.3%
1.0 mg/kg group
  The average MBP over 23 hours before administration: 147 ± 5 mmHg
  Average blood pressure 1 hr after administration: 118 ± 6
  Average blood pressure 2 hr after administration: 85 ± 5
  Average blood pressure 3 hr before administration: 129 ± 9
  Average blood pressure 7 hr after administration: 74 ± 4
  Average blood pressure 13 hr after administration: 76 ± 6
  Average blood pressure 13 hr before administration: 149 ± 7
  Average blood pressure 18 hr after administration: 80 ± 5
  Average blood pressure 23 hr after administration: 81 ± 5
  Average blood pressure 23 hr before administration: 146 ± 9
1.0 mg/kg single intragastric dose
  The average MBP over 23 hours after administration: 81 ± 5 mmHg
1.0 mg/kg
  Average ratio of reduction of the average blood pressure: 44.9%
Single intragastric administration
  Minimum effective dose: 0.1 mg/kg
Single intragastric administration, 0.1-1.0 mg/kg
  Duration of the effect after single administration: about 23 hours
